Values quoted from earlier work as cited in patent US8182834B2, “Ternary non-lamellar lipid compositions” (Camurus AB, priority 2004, dated 2012).

Q: For `CCCCCCCC/C=C\CCCCCCCC(=O)OCC(O)CO` (centres unmarked) [glycerol monooleate], which equilibrium water solubility (room temperature) is on record?
A: ~10^−7 M

Q: What about the Equilibrium solubility concentration (water, 25 ° C.) of the same molecule?
A: ~10^−7 M
